The experiment deals with HCV Huh-luc/neo-ET replicon cells. As to the kind of experiment: Luciferase-Based HCV Replicon Assay (EC50 (1b)). In kind it is cell-based. To be noted: Hepatitis C virus, 72 hours exposure, luciferase activity. The method, then:
Luciferase-Based HCV Replicon Assay Protocol (EC50 (1b))
The cell culture component of the assay was performed essentially as described by Bartenschlager et al., Hepatology 2002, 35, 694-703, wherein exponentially growing HCV Huh-luc/neo-ET replicon cells were seeded at 6×10^3 cells/well in 96 well assay plate. 24 hours later the cells were treated with various concentrations of compound in triplicate. After 72 hours exposure to the compound, the luciferase activity in the wells was determined using Bright-Glo reagent (Promega, Madison, Wis.) with a luminometer (Wallac 1420 Multilabel HTS Counter Victor 2). The background control was replicon cells treated with 100 nM BILN-2061, an inhibitor of the HCV protease. % Inhibition was determined for each compound concentration in relation to the negative (no compound) control to calculate the EC50 (1b).
On the technique in general: Replicon systems follow genome replication, usually without infectious particles.

Some results are limits rather than exact numbers.

Experimental findings from patent publication US8222404B2, “[1,2,4]Thiadiazin-3-yl acetic acid compound and methods of making the acetic acid compound” (Anadys Pharmaceuticals, Inc., priority 2008, dated 2012) are described below.

As a reminder, the EC50 is the concentration that produces a half-maximal response. The compound `Cc1cc(CN2C(=O)C(C3=NS(=O)(=O)c4c(CNS(C)(=O)=O)csc4N3)=C(O)C3CCCCC32)ccc1F` (racemic) [Example 131, (rac-cis)-N-{3-[1-(4-Fluoro-3-methyl-benzyl)-4-hydroxy-2-oxo-1,2,4a,5,6,7,8,8a-octahydro-quinolin-3-yl]-1,1-dioxo-1,4-dihydro-1λ^6-thieno[2,3-e][1,2,4]thiadiazin-7-ylmethyl}-methanesulfonamide] returned a concentration for a half-maximal effect (EC50) of 100 to 1000 nM. The result for `CS(=O)(=O)NCc1csc2c1S(=O)(=O)N=C(C1=C(O)C(C3CCCC3)CN(Cc3ccc(F)cc3)C1=O)N2` (racemic) [Example 16, rac-N-{3-[5-Cyclopentyl-1-(4-fluoro-benzyl)-4-hydroxy-2-oxo-1,2,5,6-tetrahydro-pyridin-3-yl]-1,1-dioxo-1,4-dihydro-1λ^6-thieno[2,3-e][1,2,4]thiadiazin-7-ylmethyl}-methanesulfonamide] reads 20 to 100 nM; that for `COc1cc(CN2C(=O)C(C3=NS(=O)(=O)c4c(CNS(C)(=O)=O)csc4N3)=C(O)[C@@H]3CCC[C@@H]32)ccc1F` [Example 114, (4aR,7aS)-N-{3-[1-(4-Fluoro-3-methoxy-benzyl)-4-hydroxy-2-oxo-2,4a,5,6,7,7a-hexahydro-1H-[1]pyrindin-3-yl]-1,1-dioxo-1,4-dihydro-1λ^6-thieno[2,3-e][1,2,4]thiadiazin-7-ylmethyl}-methanesulfonamide], 100 to 1000 nM; that for `COc1cc(CN2C(=O)C(C3=NS(=O)(=O)c4c(CNS(C)(=O)=O)csc4N3)=C(O)[C@@H]3C4CCC(CC4)[C@@H]32)ccc1F` [Example 36, N-{3-[(2S,7R)-3-(4-Fluoro-3-methoxy-benzyl)-6-hydroxy-4-oxo-3-aza-tricyclo[6.2.2.0^2,7]dodec-5-en-5-yl]-1,1-dioxo-1,4-dihydro-1λ^6-thieno[2,3-e][1,2,4]thiadiazin-7-ylmethyl}-methanesulfonamide], ≤ 5 nM. `CC(C)C1CN(Cc2ccc(F)cc2)C(=O)C(C2=NS(=O)(=O)c3c(CNS(C)(=O)=O)csc3N2)=C1O` (racemic) [Example 13, rac-N-{3-[1-(4-Fluoro-benzyl)-4-hydroxy-5-isopropyl-2-oxo-1,2,5,6-tetrahydro-pyridin-3-yl]-1,1-dioxo-1,4-dihydro-1λ^6-thieno[2,3-e][1,2,4]thiadiazin-7-ylmethyl}-methanesulfonamide] came in with an EC50 of 100 to 1000 nM. With `CS(=O)(=O)NCc1csc2c1S(=O)(=O)N=C(C1=C(O)C3CCCCCC3NC1=O)N2` (racemic) [Example 87, (rac-cis)-N-[3-(4-Hydroxy-2-oxo-2,4a,5,6,7,8,9,9a-octahydro-1H-cyclohepta[b]pyridin-3-yl)-1,1-dioxo-1,4-dihydro-1λ^6-thieno[2,3-e][1,2,4]thiadiazin-7-ylmethyl]-methanesulfonamide], the EC50 is > 1000 nM.

Turning to `CS(=O)(=O)NCc1csc2c1S(=O)(=O)N=C(C1=C(O)[C@@H]3C4CCC(CC4)[C@@H]3N(Cc3cc(F)c(F)c(F)c3)C1=O)N2` [Example 70, N-{3-[(2S,7R)-6-Hydroxy-4-oxo-3-(3,4,5-trifluoro-benzyl)-3-aza-tricyclo[6.2.2.0^2,7]dodec-5-en-5-yl]-1,1-dioxo-1,4-dihydro-1λ^6-thieno[2,3-e][1,2,4]thiadiazin-7-ylmethyl}-methanesulfonamide], the half-maximal effective concentration (EC50) is ≤ 5 nM. On to `CC(C)CCN1C(=O)C(C2=NS(=O)(=O)c3c(CNS(C)(=O)=O)csc3N2)=C(O)[C@@H]2[C@@H]3CC[C@@H](C3)[C@@H]21` [Example 69, N-{3-[(1S,2S,7R,8R)-6-Hydroxy-3-(3-methyl-butyl)-4-oxo-3-aza-tricyclo[6.2.1.0^2,7]undec-5-en-5-yl]-1,1-dioxo-1,4-dihydro-1λ^6-thieno[2,3-e][1,2,4]thiadiazin-7-ylmethyl}-methanesulfonamide], for which the EC50 fell in the range of 20 to 100 nM. The result for `CS(=O)(=O)NCc1csc2c1S(=O)(=O)N=C(C1=C(O)C3C4C=CC(C4)C3N(Cc3ccsc3)C1=O)N2` (racemic) [Example 64, (rac-di-exo)-N-[3-(6-Hydroxy-4-oxo-3-thiophen-3-ylmethyl-3-aza-tricyclo[6.2.1.0^2,7]undeca-5,9-dien-5-yl)-1,1-dioxo-1,4-dihydro-1λ^6-thieno[2,3-e][1,2,4]thiadiazin-7-ylmethyl]-methanesulfonamide] reads ≤ 5 nM; that for `CS(=O)(=O)NCc1csc2c1S(=O)(=O)N=C(C1=C(O)[C@@H]3[C@H]4CC[C@H](C4)[C@@H]3N(CCC3CCC3)C1=O)N2` [Example 26, N-{3-[(1R,2S,7R,8S)-3-(2-Cyclobutyl-ethyl)-6-hydroxy-4-oxo-3-aza-tricyclo[6.2.1.0^2,7]undec-5-en-5-yl]-1,1-dioxo-1,4-dihydro-1λ^6-thieno[2,3-e][1,2,4]thiadiazin-7-ylmethyl}-methanesulfonamide], 20 to 100 nM. The figure for `CS(=O)(=O)NCc1csc2c1S(=O)(=O)N=C(C1=C(O)[C@@H]3CCC[C@@H]3N(Cc3ccc(F)cc3Cl)C1=O)N2` [Example 111, (4aR,7aS)-N-{3-[1-(2-Chloro-4-fluoro-benzyl)-4-hydroxy-2-oxo-2,4a,5,6,7,7a-hexahydro-1H-[1]pyrindin-3-yl]-1,1-dioxo-1,4-dihydro-1λ^6-thieno[2,3-e][1,2,4]thiadiazin-7-ylmethyl}-methanesulfonamide] is 100 to 1000 nM; for `CS(=O)(=O)NCc1csc2c1S(=O)(=O)N=C(C1=C(O)C3CCCCCC3N(Cc3ccc(F)cc3F)C1=O)N2` (racemic) [Example 122, (rac-cis)-N-{3-[1-(2,4-Difluoro-benzyl)-4-hydroxy-2-oxo-2,4a,5,6,7,8,9,9a-octahydro-1H-cyclohepta[b]pyridin-3-yl]-1,1-dioxo-1,4-dihydro-1λ^6-thieno[2,3-e][1,2,4]thiadiazin-7-ylmethyl}-methanesulfonamide] it is > 1000 nM; for `CS(=O)(=O)NCc1csc2c1S(=O)(=O)N=C(C1=C(O)C3C4C=CC(C4)C3NC1=O)N2` (racemic) [Example 84, (rac-di-exo)-N-[3-(6-Hydroxy-4-oxo-3-aza-tricyclo[6.2.1.0^2,7]undeca-5,9-dien-5-yl)-1,1-dioxo-1,4-dihydro-1λ^6-thieno[2,3-e][1,2,4]thiadiazin-7-ylmethyl]-methanesulfonamide] it is > 1000 nM. For `CC(C)(C)CCN1C(=O)C(C2=NS(=O)(=O)c3c(CNS(C)(=O)=O)csc3N2)=C(O)C2C3CCC(C4CC43)C21` (racemic) [Example 24, (rac-di-endo)-N-{3-[3-(3,3-Dimethyl-butyl)-6-hydroxy-4-oxo-3-aza-tetracyclo[6.3.2.0^2,7.0^9,11]tridec-5-en-5-yl]-1,1-dioxo-1,4-dihydro-1λ^6-thieno[2,3-e][1,2,4]thiadiazin-7-ylmethyl}-methanesulfonamide], the EC50 was ≤ 5 nM.

Consider `CS(=O)(=O)NCc1csc2c1S(=O)(=O)N=C(C1=C(O)[C@@H]3C4CCC(CC4)[C@@H]3N(Cc3ccc(F)cc3)C1=O)N2` [Example 91, N-{3-[(2S,7R)-3-(4-Fluoro-benzyl)-6-hydroxy-4-oxo-3-aza-tricyclo[6.2.2.0^2,7]dodec-5-en-5-yl]-1,1-dioxo-1,4-dihydro-1λ^6-thieno[2,3-e][1,2,4]thiadiazin-7-ylmethyl}-methanesulfonamide], for which the concentration for a half-maximal effect (EC50) is ≤ 5 nM. The figure for `Cc1cc(CN2C(=O)C(C3=NS(=O)(=O)c4c(CNS(C)(=O)=O)csc4N3)=C(O)[C@@H]3C4CCC(CC4)[C@@H]32)ccc1F` [Example 52, N-{3-[(2S,7R)-3-(4-Fluoro-3-methyl-benzyl)-6-hydroxy-4-oxo-3-aza-tricyclo[6.2.2.0^2,7]dodec-5-en-5-yl]-1,1-dioxo-1,4-dihydro-1λ^6-thieno[2,3-e][1,2,4]thiadiazin-7-ylmethyl}-methanesulfonamide] is ≤ 5 nM; for `CS(=O)(=O)NCc1csc2c1S(=O)(=O)N=C(C1=C(O)C(Cc3ccccc3)CN(Cc3ccc(F)cc3)C1=O)N2` (racemic) [Example 12, rac-N-{3-[5-Benzyl-1-(4-fluoro-benzyl)-4-hydroxy-2-oxo-1,2,5,6-tetrahydro-pyridin-3-yl]-1,1-dioxo-1,4-dihydro-1λ^6-thieno[2,3-e][1,2,4]thiadiazin-7-ylmethyl}-methanesulfonamide] it is > 1000 nM; for `CS(=O)(=O)NCc1csc2c1S(=O)(=O)N=C(C1=C(O)[C@@H]3CCC[C@@H]3N(Cc3ccc(F)c(F)c3F)C1=O)N2` [Example 115, (4aR,7aS)-N-{3-[4-Hydroxy-2-oxo-1-(2,3,4-trifluoro-benzyl)-2,4a,5,6,7,7a-hexahydro-1H-[1]pyrindin-3-yl]-1,1-dioxo-1,4-dihydro-1λ^6-thieno[2,3-e][1,2,4]thiadiazin-7-ylmethyl}-methanesulfonamide] it is 100 to 1000 nM.

In turn, `CS(=O)(=O)NCc1csc2c1S(=O)(=O)N=C(C1=C(O)[C@@H]3CCC[C@@H]3N(Cc3ccccc3)C1=O)N2` [Example 124, (4aR,7aS)-N-[3-(1-Benzyl-4-hydroxy-2-oxo-2,4a,5,6,7,7a-hexahydro-1H-[1]pyrindin-3-yl)-1,1-dioxo-1,4-dihydro-1λ^6-thieno[2,3-e][1,2,4]thiadiazin-7-ylmethyl]-methanesulfonamide] displayed a 50% effective concentration (EC50) of 5 to 20 nM. `CS(=O)(=O)NCc1csc2c1S(=O)(=O)N=C(C1=C(O)[C@@H]3CCC[C@@H]3N(C3CCCCC3)C1=O)N2` [Example 99, (4aR,7aS)-N-[3-(1-Cyclohexyl-4-hydroxy-2-oxo-2,4a,5,6,7,7a-hexahydro-1H-[1]pyrindin-3-yl)-1,1-dioxo-1,4-dihydro-1λ^6-thieno[2,3-e][1,2,4]thiadiazin-7-ylmethyl]-methanesulfonamide]: the EC50 lay within 100 to 1000 nM.
